Data set [1] deals with M. tuberculosis H37Rv (ATCC 27294). Kind of data set: Microplate Alamar blue assay (MABA). The format is cell-based, Mycobacterium tuberculosis. As to conditions: for SI (Selectivity Index): (Vero Cell IC50)/(M. tuberculosis MIC); for MIC: Mycobacterium tuberculosis. For orientation: Resazurin is reduced to fluorescent resorufin, in cell work by metabolically active cells.
For data set [2] the test system is unchanged. Nature of the data set: microbe, parasite or virus in culture. Conditions: Mycobacterium tuberculosis; for inhibition at 64 µg/mL: % inhibition at 64 μg/mL, read-out: LORA % inh; for MIC: read-out: LORA MIC. The data set is classed as cell-based, Mycobacterium tuberculosis.
Another data set has as its system Vero cells. Kind of data set: cells. As to conditions: Chlorocebus sabaeus; for cytotoxicity at 128 µg/mL: read-out: Vero cell (% inh); for IC50: read-out: Vero cell IC50.
Another data set relates to NCI-60 cell line. As to conditions: cited from earlier work.
For data set [3], the system named is M. tuberculosis H37Rv. The arrangement: method as in PMID 12828474. As to conditions: natural 2 isolated from P. elisabethae, at 12.5 μg/mL (40 μM); cited from earlier work.
The test system of another data set is MRSA. Nature of the data set: Microbroth dilution antibiotic susceptibility assay. As to conditions: Staphylococcus aureus, read-out: IC50 MRSA. The data set is classed as cell-based. Background: Broth dilution looks for growth in wells or tubes with falling amounts of substance.
The next data set concerns VRE. The data set is described as above. The data set is classed as cell-based, Enterococcus faecium. As to conditions: Enterococcus, read-out: IC50 VRE.
The test system of data set [4] is M. smegmatis (ATCC 12051). The data set is described as above. The format is cell-based. Conditions: Mycolicibacterium smegmatis, ATCC12051; microbroth dilution; read-out: MIC M. smegmatis.
Data set [5] relates to M. diernhoferi (ATCC 19340). The description is as above. The data set is classed as cell-based. Conditions: Mycolicibacterium diernhoferi, ATCC19340; microbroth dilution; read-out: MIC M. diernhoferi.
Data set [6] relates to M. tuberculosis H37Rv. The arrangement: method as in PMID 9145860. Conditions: comparison values; cited from earlier work.
Setting [7] is: M. tuberculosis H37Rv (ATCC 27294), replicating, read-out: MABA MIC.
The mark [8] stands for this setting: non-replicating persistent model.

Converted amounts (≈) assume the structure as drawn.

The term IC50 denotes the concentration needed to halve the response being measured. Turning to `CC(C)=C[C@@H]1C[C@H](C)[C@H]2CC[C@H](C)c3c2c1c(C)c1ncoc31` [Compound 1, pseudopteroxazole], the “SI (Selectivity Index)” value in data set [1] is >8.6. The MIC in data set [1] (setting [7]) is 15 µg/mL (≈ 48.5 µM); in [1] (wild-type M. tuberculosis H37Rv, Table 2 experiment, read-out: MABA MIC H37Rv) it was 7 µg/mL (≈ 22.6 µM); in [2] (setting [8]), 50 µg/mL; in data set [2] (value given in μM), 162 µM. Also, the inhibition at 64 µg/mL in data set [2] stood at 99.7%. The cytotoxicity at 128 µg/mL in the data set with Vero cells was determined as 0%. In addition, in the data set with Vero cells, the IC50 was > 128 µg/mL. Also, the “cytotoxicity against the NCI-60 cell line assay” value in the data set on NCI-60 cell line is reported as “no significant cytotoxicity”.

On to `CCCCCc1nc2c(C)c3c4c(c2o1)[C@@H](C)CC[C@@H]4[C@@H](C)C[C@H]3C=C(C)C` [Compound 2, homopseudopteroxazole], for which the MIC in data set [1] (setting [7]) is > 128 µg/mL. The “activity against M. tuberculosis H37Rv” value in data set [1] (semi-synthetic material, MABA) is “not active”. In addition, in data set [2], the inhibition at 64 µg/mL was 22.6%. For the same compound, in the data set on Vero cells, the cytotoxicity at 128 µg/mL came to 0% and the IC50 was > 128 µg/mL. In addition, the “inhibition against M. tuberculosis H37Rv” value with M. tuberculosis H37Rv [3] is listed as 80%.

As to `COc1ccc(CC=C(C)C)c(OC)c1O` [Compound 14, 2,6-Dimethoxy-3-(3-methylbut-2-enyl)phenol], the MIC in data set [1] (setting [7]) was > 128 µg/mL; in data set [4] it was 128 µg/mL (≈ 576 µM); in data set [5] it was 64 µg/mL (≈ 288 µM). Also, the inhibition at 64 µg/mL in [2] was -4.7%. Moreover, the IC50 was > 128 µg/mL in the data set with MRSA, > 128 µg/mL in the data set with VRE and 44 µg/mL (≈ 198 µM) in the data set with Vero cells.

For the compound `COc1cc(CC=C(C)C)c(CC=C(C)C)c(OC)c1O` [Compound 15, 2,6-Dimethoxy-3,4-bis(3-methylbut-2-enyl)phenol], in [1], the “SI (Selectivity Index)” value is 1.1. For the same compound, the MIC in [1] (setting [7]) came out at 59 µg/mL (≈ 203 µM); in data set [2] (setting [8]) it was 58 µg/mL; in [4], 8 µg/mL (≈ 27.5 µM); in [5], 8 µg/mL (≈ 27.5 µM). In data set [2], the inhibition at 64 µg/mL was 99.7%. Moreover, the IC50 is 20 µg/mL (≈ 68.9 µM) in the data set on MRSA, 3 µg/mL (≈ 10.3 µM) in the data set with VRE and 64 µg/mL (≈ 220 µM) in the data set with Vero cells.

Take `COc1c(O)c(OC)c(CC=C(C)C)c(CC=C(C)C)c1CC=C(C)C` [Compound 16, 2,6-Dimethoxy-3,4,5-tris(3-methylbut-2-enyl)phenol]: in data set [1], the “SI (Selectivity Index)” value is recorded as >2.3. The MIC in [1] (setting [7]) was 56 µg/mL (≈ 156 µM); in data set [4] it was > 128 µg/mL; in data set [5], 8 µg/mL (≈ 22.3 µM). Further, the inhibition at 64 µg/mL in data set [2] was determined as 79.7%. Also, the IC50 is > 128 µg/mL in the data set on MRSA, 3 µg/mL (≈ 8.37 µM) in the data set with VRE and > 128 µg/mL in the data set with Vero cells. For the same compound, the cytotoxicity at 128 µg/mL in the data set with Vero cells is 29%.

As for `COc1ccc(CC=C(C)C)c(OC)c1O[C@@H]1O[C@H](CO)[C@H](O)[C@H](O)[C@H]1O` [Compound 20, 2,6-Dimethoxy-3-(3-methylbut-2-enyl)phenol-β-D-galactopyranoside], the MIC in data set [1] (setting [7]), in data set [4] and in data set [5] was > 128 µg/mL throughout. The inhibition at 64 µg/mL in data set [2] is -24.8%. Also, the IC50 in the data set with MRSA is > 128 µg/mL; in the data set on VRE it was > 128 µg/mL; in the data set on Vero cells, 82 µg/mL (≈ 213 µM).

Turning to `N[C@@H]1CON=C1O` [cycloserine], the “MIC of first and second line TB treatments” value in the data set on M. tuberculosis H37Rv [6] was 122 to 490 µM.

In the case of `CC[C@@H](CO)NCCN[C@@H](CC)CO` [ethambutol], the “MIC of first and second line TB treatments” value in the data set with M. tuberculosis H37Rv [6] was 4.6 to 9.2 µM.

As for `NC[C@H]1O[C@H](O[C@H]2[C@H](O)[C@@H](O[C@H]3O[C@H](CO)[C@@H](O)[C@H](N)[C@H]3O)[C@H](N)C[C@@H]2N)[C@H](O)[C@@H](O)[C@@H]1O` [kanamycin], in the data set on M. tuberculosis H37Rv [6], the “MIC of first and second line TB treatments” value was 2.5 to 10.3 µM.

Turning to capreomycin, the “MIC of first and second line TB treatments” value in the data set on M. tuberculosis H37Rv [6] was 0.94 to 3.7 µM.

Values taken from publication PMC3447335, “Evaluation of Pseudopteroxazole and Pseudopterosin Derivatives against Mycobacterium tuberculosis and Other Pathogens” (Marine Drugs, 2012).
